# Reference: patent publication US11472812B2, “Anti-cancer compounds targeting Ral GTPases and methods of using the same” (The Regents of the University of Colorado, a body corporate, priority 2014, dated 2022)
# “Also recorded” adds a separate entry of the source.
# Experiments:
# [1] = system: H2122 human lung cancer cells; assay: Cellular uptake, LC/MS-MS of cell lysates; type: in vitro ADME; conditions: 10 μM, 1-60 min
# Description: To quantitate how well the test compounds get into cells, H2122 human lung cancer cells were seeded at 3×10^5 cells per well in 6-well plates and let sit for 16 h. Compounds (10 μM) were individually dosed in triplicate; cells were then collected into 500 μl ice-cold ACN:MeOH:H2O (1:1:1) at different time points (1, 5, 15, 30 and 60 min). Drug concentrations in cell lysates were then determined using LC/MS-MS methods as described with respect to the pharmacokinetic and pharmacodynamic studies in mice, described in detail in Example 5, below.
# [2] = system: H2122 human lung cancer cells; assay: H2122 xenograft tumor growth; type: in vivo, nude mice; conditions: i.p. daily except weekends, initiated 24 h after inoculation; RBC8 50 mg/kg/d; BQU57 and BQU85 5, 10, 20, and 50 mg/kg/d
# Description: We next determined compound entry into tumor tissue. To do so, athymic nude mice (Ncr nu/nu; National Cancer Institute, Fredrick, Md.) were received at 5 to 6 weeks of age and were allowed to acclimate for 2 weeks in sterile micro isolator cages with constant temperature and humidity. Mice had free access to food and water. H2122 cells in log-phase growth were harvested on the day of use. Cells were suspended in un-supplemented RPMI 1640 medium and 0.1 mL (2×10^5 cells) was injected s.c. four sites per mice. For H358 xenografts, cells (5×10^6) were mixed with matrigel (20% final concentration) and 0.1 mL was inoculated s.c. per site. After cell inoculation, mice were monitored daily, weighed twice weekly and caliper measurements begun when tumors visible. Tumor volume was calculated by (L×W2)/2, where L is longer measurement of tumor and W is the smaller tumor measurement. Drug treatment started the day after inoculation. Compounds were dissolved in DMSO and injected i.p. daily except weekends at 10/20/50 mg/kg. […] The effect of the Ral inhibitors on xenograft tumor growth was then tested in nude mice. Mice were inoculated subcutaneously with H2122 human lung cancer cells and treated intraperitoneally with 50 mg/kg/d (except weekends) of RBC8 24 h post inoculation.
smiles,measurement,setting,value
"Cn1nc(-c2ccccc2)c2c1OC(N)=C(C#N)C2c1ccc(OC(F)(F)F)cc1 (centres unmarked) [BQU85, 6-amino-1-methyl-3-phenyl-4-(4-(trifluoromethoxy)phenyl)-1,4-dihydropyrano[2,3-c]pyrazole-5-carbonitrile]",cellular uptake,[1],readily get into cells
same,xenograft tumor growth inhibition,[2],dose-dependent growth inhibition effects were observed; also recorded: inhibited xenograft tumor growth
